25 compounds from patent US20090264289A1, “Use of Arylcarboxylic Acid Biphenylamides for Seed Treatment” (BASF SE, priority 2006, published 2009) can be followed below.

Type in all cases: in vivo
The test system of one experiment is Erysiphe graminis. The experiment can be described thus: Activity against Erysiphe graminis on wheat (solution pipetted to seedlings in vermiculite). Conditions: inoculated 7 days after treatment, 7 days incubation, control 80. The protocol:
(§1) Activity Against Erysiphe graminis on Wheat The active compounds were formulated as a stock solution in acetone at a concentration of 10 000 ppm. The stock solution was diluted with water to the stated active compound concentration. 1 ml of the respective solution was pipetted to wheat seedlings grown in vermiculite (10 to 12 seedlings per pot). 7 days after the treatment the wheat plants were inoculated with a spore suspension of Erysiphe graminis. After 7 days of incubation, the extent of infection was determined visually in %. The concentration is given in g of active compound (g a.i.) per 100 kg of seeds.

The subject of experiment [1] is Puccinia recondita. The experiment can be described thus: Activity against Puccinia recondita on wheat (solution pipetted to seedlings in vermiculite). Conditions: inoculated 7 days after treatment, 7 days incubation, control 80. On the procedure: as §1, with “Puccinia recondita” for “Erysiphe graminis”, “Puccinia recondita.” for “Erysiphe graminis.”
A further experiment deals with Septoria tritici. The experiment can be described thus: Activity against Septoria tritici on wheat (seedlings treated, detached leaf portions on agar inoculated). The following applies: wheat seedlings in vermiculite, leaf portions on agar inoculated 7 days after treatment, 18° C., 18 days incubation, control 100. The protocol: Activity Against Septoria tritici on Wheat The active compound Ia.1 was formulated as a stock solution in acetone at a concentration of 10 000 ppm. The stock solution was diluted with water to the stated active compound concentration. 1 ml of the respective solution was pipetted to wheat seedlings grown in vermiculite (10 to 12 seedlings per pot). 7 days after the treatment leaf portions of 5 cm length were placed in petri dishes filled with aqueous agar. The leaf portions were then inoculated with a spore suspension of Septoria tritici. The closed Petri dishes were incubated in a climatized test cabinet at 18° C. and 12 h light exposure per day. After 18 days of incubation, the extent of infection was determined visually in %. The concentration is given in g of active compound (g a.i.) per 100 kg of seeds.

The subject of experiment [2] is Puccinia recondita. The experiment can be described thus: Activity against Puccinia recondita on wheat (seed treatment). The following applies: 250 g a.i./100 kg seeds, inoculated 14 days after sowing, 7 days incubation, control 90. On the procedure: Activity Against Puccinia recondita on Wheat (Seed Treatment) 24 mg of the active compounds listed in table 2 were in each case dissolved in 1 ml of acetone to give a stock solution. The stock solution was diluted with acetone to give the test solution. Aliquots of 4.8 g of wheat seeds were placed in glass vials, where they were treated in an air stream with 1 ml of the test solution containing the active compound. In each case, 10 grains were sown in pots of 8 cm diameter. Untreated grains served as control. […] After 7 days of incubation, the extent of infection was determined visually in %. The concentration is given in g of active compound (g a.i.) per 100 kg of seeds.

The next experiment has as its system Phakopsora pachyrhizi. The experiment is described as follows: Activity against Phakopsora pachyrhizi on soybean (solution pipetted to seedlings in vermiculite). Conditions: 250 g a.i./100 kg, inoculated 7 days after treatment, 14 days incubation, control 88. The protocol: Activity Against Phakopsora pachyrhizi on Soybean
The active compounds were formulated as a stock solution in dimethylsulfoxide at a concentration of 10 000 ppm. The stock solution was diluted with water to the stated active compound concentration. 1 ml of the respective solution was pipetted to soybean seedlings grown in vermiculite (1 seedling per pot). 7 days after the treatment the soybean plants were inoculated with a spore suspension of Phakopsora pachyrhizi. After 14 days of incubation, the extent of infection was determined visually in %. The concentration is given in g of active compound (g a.i.) per 100 kg of seeds.

Take `Cn1cc(C(=O)Nc2ccccc2-c2cc(Cl)cc(Cl)c2)c(C(F)F)n1` [Ia.43]: the Infected leaf area in the experiment with Erysiphe graminis (125 g a.i./100 kg) came out at 2%; in the experiment on Erysiphe graminis (250 g a.i./100 kg), 0%; in the experiment on Puccinia recondita [1] (125 g a.i./100 kg), 0%; in the experiment on Puccinia recondita [1] (250 g a.i./100 kg), 0%.

Turning to `Cn1cc(C(=O)Nc2ccccc2-c2ccc(F)c(Cl)c2)c(C(F)F)n1` [Ia.44], the Infected leaf area in the experiment with Puccinia recondita [1] (125 g a.i./100 kg) and in the experiment on Puccinia recondita [1] (250 g a.i./100 kg) was 0% each time.

`Cn1cc(C(=O)Nc2ccccc2-c2ccc(F)c(F)c2)c(C(F)F)n1` [Ia.45]: the Infected leaf area in the experiment on Puccinia recondita [1] (125 g a.i./100 kg) and in the experiment on Puccinia recondita [1] (250 g a.i./100 kg) was 0% throughout.

As to `Cn1cc(C(=O)Nc2ccccc2-c2ccc(Cl)cc2F)c(C(F)(F)F)n1` [Ia.57], the Infected leaf area with Puccinia recondita [1] (125 g a.i./100 kg) and with Puccinia recondita [1] (250 g a.i./100 kg) was 0% in each case.

Regarding `Cn1cc(C(=O)Nc2ccccc2-c2cccc(C(F)(F)F)c2)c(C(F)(F)F)n1` [Ia.64], the Infected leaf area with Puccinia recondita [1] (125 g a.i./100 kg) and with Puccinia recondita [1] (250 g a.i./100 kg) was 0% each time.

Regarding `Cc1cc(-c2ccccc2NC(=O)c2cn(C)nc2C(F)(F)F)c(F)cc1Cl` [Ia.84], the Infected leaf area was 0% in the experiment on Erysiphe graminis (125 g a.i./100 kg); 0% in the experiment on Erysiphe graminis (250 g a.i./100 kg); 0% with Puccinia recondita [1] (125 g a.i./100 kg); 0% with Puccinia recondita [1] (250 g a.i./100 kg); 3% in the experiment with Septoria tritici (125 g a.i./100 kg); 3% in the experiment with Septoria tritici (250 g a.i./100 kg).

Turning to `Cn1cc(C(=O)Nc2ccccc2-c2cc(F)c(F)c(F)c2)c(C(F)(F)F)n1` [Ia.85], the Infected leaf area in the experiment on Erysiphe graminis (125 g a.i./100 kg) is given as 0%; in the experiment on Erysiphe graminis (250 g a.i./100 kg), 0%; with Puccinia recondita [1] (125 g a.i./100 kg) it was 0%; in the experiment with Puccinia recondita [1] (250 g a.i./100 kg), 0%; with Puccinia recondita [2], 11%; with Septoria tritici (125 g a.i./100 kg), 0%. In the experiment on Septoria tritici (250 g a.i./100 kg), this compound returned an Infected leaf area of 0%.

For `Cn1cc(C(=O)Nc2ccc(F)cc2-c2ccc(Cl)c(Cl)c2)c(C(F)F)n1` [Ia.110], the Infected leaf area with Erysiphe graminis (125 g a.i./100 kg) amounted to 0%; in the experiment on Erysiphe graminis (250 g a.i./100 kg) it was 0%; in the experiment on Phakopsora pachyrhizi, 17%; in the experiment on Septoria tritici (125 g a.i./100 kg), 3%; in the experiment on Septoria tritici (250 g a.i./100 kg), 7%.

`Cn1cc(C(=O)Nc2ccccc2-c2ccc(SC(F)(F)F)cc2)c(C(F)(F)F)n1` [Ia.173]: the Infected leaf area in the experiment with Erysiphe graminis (125 g a.i./100 kg), with Erysiphe graminis (250 g a.i./100 kg), in the experiment on Puccinia recondita [1] (125 g a.i./100 kg) and in the experiment on Puccinia recondita [1] (250 g a.i./100 kg) was 0% throughout.

With `Cn1cc(C(=O)Nc2ccccc2-c2cc(F)c(F)c(F)c2)c(C(F)Cl)n1` (stereo not shown) [Ia.211], the Infected leaf area is listed as 0% in the experiment with Erysiphe graminis (125 g a.i./100 kg); 0% in the experiment with Erysiphe graminis (250 g a.i./100 kg); 0% in the experiment with Puccinia recondita [1] (125 g a.i./100 kg); 0% in the experiment on Puccinia recondita [1] (250 g a.i./100 kg); 3% in the experiment with Phakopsora pachyrhizi.

For `Cc1nn(C)c(Cl)c1C(=O)Nc1ccccc1-c1ccc(C(F)(F)F)cc1` [Ia.219], the Infected leaf area in the experiment with Puccinia recondita [1] (125 g a.i./100 kg) is 8%; with Puccinia recondita [1] (250 g a.i./100 kg), 6%.

With `Cn1cc(C(=O)Nc2ccccc2-c2cccc(Cl)c2)c(CF)n1` [Ia.230], the Infected leaf area in the experiment on Puccinia recondita [1] (125 g a.i./100 kg) and in the experiment with Puccinia recondita [1] (250 g a.i./100 kg) was 0% in each case.

`Cn1cc(C(=O)Nc2ccccc2-c2cccc(Cl)c2)c(C(F)F)n1` [Ia.231]: the Infected leaf area with Puccinia recondita [1] (125 g a.i./100 kg) and in the experiment with Puccinia recondita [1] (250 g a.i./100 kg) was 0% in each case.

For the compound `Cn1cc(C(=O)Nc2ccccc2-c2ccccc2Cl)c(C(F)F)n1` [Ia.233], the Infected leaf area with Puccinia recondita [1] (125 g a.i./100 kg) is 2%; in the experiment on Puccinia recondita [1] (250 g a.i./100 kg) it was 0%; with Septoria tritici (125 g a.i./100 kg), 7%; with Septoria tritici (250 g a.i./100 kg) it was 0%.

For the compound `Cn1cc(C(=O)Nc2ccccc2-c2cc(F)cc(F)c2)c(C(F)F)n1` [Ia.244], the Infected leaf area in the experiment with Puccinia recondita [1] (125 g a.i./100 kg) and with Puccinia recondita [1] (250 g a.i./100 kg) was 0% throughout.

As for `Cn1cc(C(=O)Nc2ccccc2-c2cc(F)cc(F)c2)c(C(F)(F)F)n1` [Ia.245], the Infected leaf area is 0% in the experiment on Erysiphe graminis (125 g a.i./100 kg); 0% with Erysiphe graminis (250 g a.i./100 kg); 0% in the experiment on Puccinia recondita [1] (125 g a.i./100 kg); 0% in the experiment with Puccinia recondita [1] (250 g a.i./100 kg); 19% in the experiment with Puccinia recondita [2]; 0% in the experiment on Phakopsora pachyrhizi. Further, the Infected leaf area in the experiment on Septoria tritici (125 g a.i./100 kg) and in the experiment on Septoria tritici (250 g a.i./100 kg) was 0% throughout.

Turning to `Cn1cc(C(=O)Nc2c(F)cccc2-c2ccc(F)c(Cl)c2)c(C(F)F)n1` [Ia.249], the Infected leaf area in the experiment with Puccinia recondita [1] (125 g a.i./100 kg) and in the experiment with Puccinia recondita [1] (250 g a.i./100 kg) was 0% throughout.

With `Cn1cc(C(=O)Nc2ccccc2-c2cc(F)cc(Cl)c2)c(C(F)F)n1` [Ia.250], the Infected leaf area in the experiment with Puccinia recondita [1] (125 g a.i./100 kg) and in the experiment with Puccinia recondita [1] (250 g a.i./100 kg) was 0% throughout.

For `Cn1cc(C(=O)Nc2ccccc2-c2cc(F)cc(Cl)c2)c(C(F)(F)F)n1` [Ia.251], the Infected leaf area in the experiment on Puccinia recondita [1] (125 g a.i./100 kg) and in the experiment with Puccinia recondita [1] (250 g a.i./100 kg) was 0% throughout.

Consider `Cn1cc(C(=O)Nc2ccccc2-c2cc(Cl)ccc2Cl)c(C(F)(F)F)n1` [Ia.255], for which the Infected leaf area was found to be 0% in the experiment with Erysiphe graminis (125 g a.i./100 kg); 0% in the experiment on Erysiphe graminis (250 g a.i./100 kg); 0% in the experiment on Puccinia recondita [1] (125 g a.i./100 kg); 0% in the experiment on Puccinia recondita [1] (250 g a.i./100 kg); 38% in the experiment on Puccinia recondita [2]; 3% in the experiment with Septoria tritici (125 g a.i./100 kg). In the experiment on Septoria tritici (250 g a.i./100 kg), this compound registered an Infected leaf area of 3%.

`Cn1cc(C(=O)Nc2ccccc2-c2ccc(SC(F)(F)F)cc2)c(C(F)F)n1` [Ia.313]: the Infected leaf area with Erysiphe graminis (125 g a.i./100 kg), in the experiment on Erysiphe graminis (250 g a.i./100 kg), with Puccinia recondita [1] (125 g a.i./100 kg), in the experiment with Puccinia recondita [1] (250 g a.i./100 kg), in the experiment on Septoria tritici (125 g a.i./100 kg) and in the experiment on Septoria tritici (250 g a.i./100 kg) was 0% in each case.

For `O=C(Nc1ccccc1-c1ccc(Cl)cc1)c1cccnc1Cl` [Id.1], in the experiment on Phakopsora pachyrhizi, the Infected leaf area came out at 40%.

Turning to `O=C(Nc1ccccc1-c1ccc(OC(F)(F)F)cc1)c1cccnc1Cl` [Id.55], the Infected leaf area in the experiment on Puccinia recondita [1] (125 g a.i./100 kg) and in the experiment with Puccinia recondita [1] (250 g a.i./100 kg) was 0% each time.

In the case of `O=C(Nc1ccccc1-c1ccc(OC(F)(F)C(F)F)cc1)c1cccnc1Cl` [Id.56], the Infected leaf area with Puccinia recondita [1] (125 g a.i./100 kg) and in the experiment with Puccinia recondita [1] (250 g a.i./100 kg) was 0% in each case.

`O=C(Nc1ccccc1-c1ccc(SC(F)(F)F)cc1)c1cccnc1Cl` [Id.58]: the Infected leaf area with Puccinia recondita [1] (125 g a.i./100 kg) and in the experiment on Puccinia recondita [1] (250 g a.i./100 kg) was 13% in each case.
